Literature values, collected in patent US10352920B2, “Supplements and monitoring systems for dosing of the supplements” (i-CalQ, LLC, priority 2012, dated 2019).
One block for each compound: values may come before it.

Experiments:
[1] = molecular target: inducible nitric oxide synthase (Homo sapiens, UniProt P35228); conditions: in vitro
[2] = dietary curcumin
lipoxygenase = conditions: in vitro
[3] = system: athletes involved in cycling, weight training and endurance running; conditions: sports nutrition studies
cognitive function = conditions: administration of 9 grams
cortisol = conditions: ingestion of 1 gram for 7 days

Sequence of inducible nitric oxide synthase (P35228 whole entry): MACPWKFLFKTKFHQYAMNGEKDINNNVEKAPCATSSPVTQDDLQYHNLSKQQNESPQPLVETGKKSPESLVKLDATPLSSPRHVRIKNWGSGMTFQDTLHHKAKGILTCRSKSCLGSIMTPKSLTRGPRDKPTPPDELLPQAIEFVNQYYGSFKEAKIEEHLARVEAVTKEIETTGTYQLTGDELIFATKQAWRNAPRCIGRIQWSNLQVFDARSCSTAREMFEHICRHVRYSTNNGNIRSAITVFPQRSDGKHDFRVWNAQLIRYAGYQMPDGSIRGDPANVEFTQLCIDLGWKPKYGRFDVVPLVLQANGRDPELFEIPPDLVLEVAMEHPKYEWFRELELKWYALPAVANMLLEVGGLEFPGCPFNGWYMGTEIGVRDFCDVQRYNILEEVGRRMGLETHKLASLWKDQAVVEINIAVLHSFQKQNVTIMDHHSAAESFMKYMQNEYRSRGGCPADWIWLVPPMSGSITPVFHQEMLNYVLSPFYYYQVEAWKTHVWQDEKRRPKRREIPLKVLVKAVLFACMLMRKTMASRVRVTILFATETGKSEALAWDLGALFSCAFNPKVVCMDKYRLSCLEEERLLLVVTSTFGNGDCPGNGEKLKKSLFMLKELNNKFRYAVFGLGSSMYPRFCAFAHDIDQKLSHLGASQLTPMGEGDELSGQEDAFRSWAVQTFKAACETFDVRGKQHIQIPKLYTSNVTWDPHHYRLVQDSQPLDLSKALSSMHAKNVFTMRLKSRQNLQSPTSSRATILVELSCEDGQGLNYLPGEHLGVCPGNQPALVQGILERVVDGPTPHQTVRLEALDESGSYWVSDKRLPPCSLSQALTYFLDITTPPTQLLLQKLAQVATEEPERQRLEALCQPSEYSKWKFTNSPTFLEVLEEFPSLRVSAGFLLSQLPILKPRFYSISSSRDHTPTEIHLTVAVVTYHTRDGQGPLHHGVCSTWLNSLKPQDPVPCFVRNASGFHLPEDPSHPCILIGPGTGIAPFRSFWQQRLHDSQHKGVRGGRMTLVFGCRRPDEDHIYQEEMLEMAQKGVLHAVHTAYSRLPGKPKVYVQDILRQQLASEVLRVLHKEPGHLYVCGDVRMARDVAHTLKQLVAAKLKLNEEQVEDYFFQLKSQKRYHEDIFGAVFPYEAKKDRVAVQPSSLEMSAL

- activity of inducible nitric oxide synthase [1]: down-regulating the activity
- bioavailability (levels in plasma and tissues) [2]: poor bioavailability
- activity of lipoxygenase (lipoxygenase): down-regulating the activity
Compound: COc1cc(/C=C/C(=O)CC(=O)/C=C/c2ccc(O)c(OC)c2)ccc1O [curcumin]

Compound: phosphotidylserine
- muscle soreness [3]: prevent muscle soreness
- recovery [3]: speed up recovery
- well-being [3]: improve well-being

Compound: N[C@@H](Cc1ccc(O)cc1)C(=O)O [tyrosine]
- cognitive function following experimentally induced hypothermia (cognitive function): improves cognitive function

Compound: O=C1O[C@H]([C@@H](O)CO)C(O)=C1O [vitamin C]
- cortisol rise in response to lipopolysaccharide administration (cortisol): blunts the cortisol rise
